Test results: US5523296A, “1,3-benzodioxole and 1,2-dialkoxybenzene derivatives as ocular hypotensive agents” (Allergan, Inc., priority 1994, dated 1996)

Legend:
[1] = system: intraocular pressure in dog eyes; assay: intraocular pressure in eyes of dogs (pneumatonometry); format: in vivo, beagle dogs; conditions: 6 hours after administr., dog eye
Method: The assay is descibed as follows: male and female beagle dogs weighing 10-15 kg had been trained for a minimum of 2 months so that intraocular pressure could be measured without the use of restraining devices. Intraocular pressure was measured by pneumatonometry using applanation tonometers (Alcon). One minute prior to tonometry, 25 μl of proparacaine (Allergan, Irvine Calif.) was applied to minimize ocular discomfort during the procedure. Determination of the effects of the compounds of the invention on intraocular pressure involved administration of 1 to 25 μl of solution of the compound to one eye and an equal volume of vehicle to the contralateral eye as a control.
The effect of the compounds of the invention to lower intraocular pressure in dog eyes, in accordance with the above-described assay is shown in Table 1 with respect to the following compounds: […]

[2] = system: Swiss 3T3 cells; assay: inhibition of DNA synthesis: incorporation of tritium labeled thymidine into Swiss 3T3 cells; format: cell-based, mouse; conditions: 22 hours incubation, 5 hours pulse-labeling, CPM per μg DNA, mean of quadruplicates, vehicle 2601
Method: In addition, compounds of the invention were also found to inhibit DNA synthesis as observed in an assay where the incorporation of tritium labeled thymidine into Swiss 3T3 cells is measured. The assay is described as follows.
Swiss mouse 3T3 cells were maintained in Dulbecco's modified Eagle's medium (DMEM) low glucose and supplemented with 10% fetal bovine serum FBS), 2 mM 1-glutamine and 1% antibiotic-antimycotic 100×. The cultures were incubated in 5% CO2 in air at 37° C. Confluent cultures were trypsinized and plated in quadruplicate cultures for experiments. Cells were plated at 1×10^5 cells per 35 mm well in DMEM containing 10% FBS in 6-well cluster plates and allowed to become confluent in 3 days. The cells were then made quiescent by washing them with Hank's balanced salt solution (HBSS) and incubating them for 24 hours in DMEM with 0.5% FBS. The cultures were then refed fresh DMEM containing 0.5% FBS and various concentrations of the test compounds. All compounds were dissolved in absolute ethanol, diluted with sterile filtered normal saline and added to the medium so that the final ethanol control cultures were incubated in medium containing 0.01% or less […]. […]
Pulse-labeling of the cultures consisted of collecting the conditioned, drug-treated or control containing media, then adding 1μ Ci/ml [^3 H]-TdR and incubating the cultures in the [^3 H]-TdR containing medium for 5 hours. […] Radioactivity was measured by liquid-scintillation counting using Beckman HP cocktail. […] After centrifugation as before, an aliquot of the supernatant containing [^3 H]-TdR incorporated into DNA (S2) was assayed for radioactivity by scintillation counting.
An aliquot of the remaining S2 supernatant was assayed for quantity of DNA by the diphenylamine method. […] Absorbance of the DNA standards and samples was measured in a Beckman Biomek spectrophotometer at 600 nm wavelength.
The data was expressed as CPM ([^3 H]-TdR incorporated into DNA) per μg DNA and the mean of the quadruplicate samples was obtained for each experiment. […]

For `COC(=O)CCCCc1cc2c(cc1C(O)CCc1ccccc1)OCO2` (racemic) [Compound 1, (±)-Methyl5-[6-(1-hydroxy-3-phenylpropyl)]-1,3-benzodioxol-5-yl]-pentanoate], the “Change in IOP” value ([1]; 0.1 %) was -1.0 mm of Hg.
With `O=C(O)CCCCc1cc2c(cc1C(O)CCc1cccs1)OCO2` (racemic) [Compound 7, (±)-5-[[6-(1-hydroxy-3-(2-thienyl)propyl)]-1,3-benzodioxolyl]pentanoic acid] the “Change in IOP” value ([1]; 0.1 %) was -1.0 mm of Hg.
For `CCCCCC(O)c1cc2c(cc1CCCCCO)OCO2` (racemic) [Compound 3, (±)-5-[6-(1-hydroxy)hexyl]-1,3-benzodioxol-5-yl]-pentanol], the “Change in IOP” value ([1]; 0.01 %) was -3.0 mm of Hg and the “Change in IOP” value ([1]; 0.1 %) was -4.2 mm of Hg.
With `OCCCCCc1cc2c(cc1C(O)CCc1cccs1)OCO2` (racemic) [Compound 6, (±)-5-[[6-(1-hydroxy-3-(2-thienyl)propyl]-1,3-benzodioxolyl]pentanol] the “Change in IOP” value ([1]; 0.1 %) was -1.1 mm of Hg.
In the case of `OCCCCCc1cc2c(cc1C(O)CCc1ccccc1)OCO2` (racemic) [Compound 2, (±)-5-[6-(1-hydroxy-3-phenylpropyl)]-1,3-benzodioxol-5yl]pentanol], the “Change in IOP” value ([1]; 0.1 %) is reported as -1.25 mm of Hg.
For `CCCCCC(O)c1cc2c(cc1CCCCC(=O)O)OCO2` (racemic) [Compound 5, (±)-5-[6-(1-hydroxy)hexyl]-1,3-benzodioxol-5-yl]-pentanoic acid], the “CPM ([3H]-TdR incorporated into DNA)” value ([2]; 10^-5 M) was 1454 CPM, the “CPM ([3H]-TdR incorporated into DNA)” value ([2]; 10^-6 M) was 1598 CPM and the “CPM ([3H]-TdR incorporated into DNA)” value ([2]; 10^-7 M) was 2102 CPM.
In the case of `CCCCCC(O)c1cc(OC)c(OC)cc1CCCCC(=O)O` (racemic) [Compound 4, (±)-5-[2-(1-Hydroxy)hexyl-4,5-dimethoxyphenyl-]-1-pentanoic acid], the “Change in IOP” value ([1]; 0.1 %) is reported as -1.2 mm of Hg.
